In US8987473B2, “Ring-fused compound” (Sato Pharmaceutical Co., Ltd., priority 2011, dated 2015):

target: human URAT1 (Homo sapiens (Human), UniProt Q96S37); test: Test for uric acid transport inhibition using human URAT1 expression cell; type: cell-based; conditions: human URAT1 stable expression CHO cell; 14C-labeled uric acid 38 μM final concentration; incorporation at room temperature for 5 minutes; 100% window defined with benzbromarone 100 μM; read-out: URAT1 Inhibitory Activity (IC50)
Protocol: In this Example, it was evaluated whether the Example compound has the URAT1 inhibitory activity.
Human URAT1 full-length cDNA was introduced to an expression vector pcDNA5/FRT/V5-His TOPO (registered trademark) (Invitrogen Corporation). The obtained expression plasmid was introduced to Chinese hamster ovary cell (hereinafter referred to as the CHO cell) by the liposome method using Lipofectamine LTX (Invitrogen), and cultured in a selection medium including hygromycin, whereby to prepare human URAT1 stable expression cell.
The human URAT1 expression CHO cell was cultured using D-MEM/F-12 (1:1) mixed medium including 10% bovine fetal serum and hygromycin at 37° C. in the presence of 5% CO2. The cells were seeded onto a 96 well plate (Corning Incorporated) in 0.8×10^5 cells/well, and after 24 hours, the test for uric acid transport inhibition below was performed.
The medium was removed by aspiration, and then the cells were washed once with an assay buffer including 125 mM of sodium gluconate, 4.8 mM of potassium gluconate, 1.2 mM of potassium dihydrogen phosphate, 1.2 mM of magnesium sulfate, 1.3 mM of calcium gluconate and 5.6 mM of glucose. 50 μL assay buffer including the test compound in various concentrations was added, and further 50 μL assay buffer including a radioactive ligand (uric acid labeled with ^14C; 38 μM final concentration) was added, and incorporation reaction was performed at room temperature for 5 minutes. Immediately after completion of the reaction, the reaction mixture was washed twice with 100 μL ice-cold assay buffer, and 100 μL of 0.1 N sodium hydroxide was added. The reaction mixture was stirred to lyse the cells, and 4 mL Hionic-Fluor (Packard BioScience CO) was added, and then the radioactivity was measured with a liquid scintillation counter (Beckman Coulter, Inc. and Packard BioScience CO).
The radioactivity when each concentration of the test compound was added (uric acid incorporation activity, %) was calculated in which the difference of the radioactivity when the test compound was not added (DMSO added), and the radioactivity when a positive control compound, benzbromarone (known URAT1 inhibitor) was added in 100 μM, was taken as 100%, and the concentration of the test compound when the uric acid incorporation activity was inhibited to 50% (IC50) was obtained.

Chain of human URAT1 (Q96S37 whole entry): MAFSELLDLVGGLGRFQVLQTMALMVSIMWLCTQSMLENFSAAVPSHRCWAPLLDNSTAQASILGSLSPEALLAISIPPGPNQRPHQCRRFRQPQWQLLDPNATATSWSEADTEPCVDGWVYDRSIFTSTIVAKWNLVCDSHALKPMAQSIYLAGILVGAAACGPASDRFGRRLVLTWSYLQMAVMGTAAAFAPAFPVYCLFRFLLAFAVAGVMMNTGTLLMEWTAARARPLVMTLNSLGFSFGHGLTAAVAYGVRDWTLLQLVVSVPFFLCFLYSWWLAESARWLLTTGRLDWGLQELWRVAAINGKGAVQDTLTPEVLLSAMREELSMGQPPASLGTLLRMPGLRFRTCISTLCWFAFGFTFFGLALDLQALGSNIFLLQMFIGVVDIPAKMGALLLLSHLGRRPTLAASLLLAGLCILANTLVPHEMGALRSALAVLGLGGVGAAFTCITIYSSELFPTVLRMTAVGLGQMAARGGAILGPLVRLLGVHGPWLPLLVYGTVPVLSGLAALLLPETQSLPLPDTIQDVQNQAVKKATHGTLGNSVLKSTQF

First: Cc1cccc(Cl)c1Cn1nc(C)c2ccc(CC(=O)O)cc21 [Example 102, 2-[1-(2-chloro-6-methylbenzyl)-3-methyl-1H-indazole-6-yl]acetic acid]
Second: Cc1nn(Cc2c(Cl)cccc2Cl)c2cc(CC(=O)O)ccc12 [Example 97, 2-[1-(2,6-dichlorobenzyl)-3-methyl-1H-indazole-6-yl]acetic acid]
The IC50 of the first is 2.9-fold higher: 52 nM for the first, 18 nM for the second.

Going from `Cc1cn(Cc2c(Cl)cccc2Cl)c2cc(CCC(=O)O)ccc12` [Example 89, 3-[1-(2,6-dichlorobenzyl)-3-methyl-1H-indole-6-yl]propionic acid] to `Cc1cn(Cc2c(Cl)cccc2Cl)c2cc(CC(=O)O)ccc12` [Example 82, 2-[1-(2,6-dichlorobenzyl)-3-methyl-1H-indole-6-yl]acetic acid], the IC50 falls from 23 nM to 15 nM (1.5-fold).

Compared with `Cc1nn(Cc2c(Cl)cccc2Cl)c2cc(C(F)(F)C(=O)O)ccc12` [Example 183, [1-(2,6-dichlorobenzyl)-3-methyl-1H-indazole-6-yl]difluoroacetic acid], `Cc1nn(Cc2c(Cl)cccc2Cl)c2cc(C(=O)CCC(=O)O)ccc12` [Example 130, 4-[1-(2,6-dichlorobenzyl)-3-methyl-1H-indazole-6-yl]-4-oxobutyric acid] is 4.5-fold higher in IC50: 15 nM for the first, 68 nM for the second. The first is the more potent here.

`Cc1cccc(C)c1Cn1cc(Cl)c2ccc(CC(=O)O)cc21` [Example 68, 2-[3-chloro-1-(2,6-dimethylbenzyl)-1H-indole-6-yl]acetic acid] and `Cc1cn(Cc2c(F)cccc2Cl)c2cc(CC(=O)O)ccc12` [Example 86, 2-[1-(2-chloro-6-fluorobenzyl)-3-methyl-1H-indole-6-yl]acetic acid] are within 1.5-fold of each other in IC50: 30 nM for the first, 28 nM for the second.

First: Cc1cccc(C)c1Cn1nc(C)c2ccc(CCC(=O)O)cc21 [Example 121, 3-[1-(2,6-dimethylbenzyl)-3-methyl-1H-indazole-6-yl]propionic acid]
Second: Cc1cccc(C)c1Cn1nc(C)c2ccc(CC(=O)O)cc21 [Example 66, 2-[1-(2,6-dimethylbenzyl)-3-methyl-1H-indazole-6-yl]acetic acid]
The IC50 of the first is 1.6-fold lower: 41 nM for the first, 67 nM for the second.

`CCc1nn(Cc2c(C)cccc2C)c2cc(C(=O)O)ccc12` [Example 143, 1-(2,6-dimethylbenzyl)-3-ethyl-1H-indazole-6-carboxylic acid] and `CCc1nn(Cc2c(C)cccc2C)c2cc(CC(=O)O)ccc12` [Example 142, 2-[1-(2,6-dimethylbenzyl)-3-ethyl-1H-indazole-6-yl]acetic acid] are within 1.5-fold of each other in IC50: 35 nM for the first, 50 nM for the second.

First: Cc1cccc(Cl)c1Cn1nc(Cl)c2ncc(C(=O)O)cc21 [Example 174, 3-chloro-1-(2-chloro-6-methylbenzyl)-1H-pyrazolo[4,3-b]pyridine-6-carboxylic acid]
Second: CCc1nn(Cc2c(Cl)cccc2Cl)c2cc(C(=O)O)cnc12 [Example 167, 1-(2,6-dichlorobenzyl)-3-ethyl-1H-pyrazolo[4,3-b]pyridine-6-carboxylic acid]
The IC50 of the first is 1.9-fold higher: 148 nM for the first, 80 nM for the second. The second is the more potent here.

Compared with `Cc1nn(Cc2c(Cl)cccc2Cl)c2cc(CS(=O)(=O)O)ccc12` [Example 139, [1-(2,6-dichlorobenzyl)-3-methyl-1H-indazole-6-yl]methanesulfonic acid], `Cc1nn(Cc2c(Cl)cccc2Cl)c2cc(CCc3nnn[nH]3)ccc12` [Example 135, 1-(2,6-dichlorobenzyl)-3-methyl-6-[2-(1H-tetrazole-5-yl)ethyl]-1H-indazole] is 28-fold lower in IC50: 653 nM for the first, 23 nM for the second.

First: Cc1nn(Cc2c(Cl)cccc2C2CC2)c2cc(CCC(=O)O)ccc12 [Example 185, 3-[1-(2-chloro-6-cyclopropylbenzyl)-3-methyl-1H-indazole-6-yl]propionic acid]
Second: Cc1nn(Cc2c(F)cccc2Cl)c2cc(CC(=O)O)ccc12 [Example 104, 2-[1-(2-chloro-6-fluorobenzyl)-3-methyl-1H-indazole-6-yl]acetic acid]
The IC50 of the first is 5.9-fold lower: 17 nM for the first, 101 nM for the second. The first is the more potent here.

Compared with `Cc1cccc(C)c1CN1CC(C)(C)c2ccc(CC(=O)O)cc21` [Example 80, 2-[1-(2,6-dimethylbenzyl)-2,3-dihydro-3,3-dimethyl-1H-indole-6-yl]acetic acid], `CCc1cn(Cc2c(C)cccc2C)c2cc(C(=O)O)ccc12` [Example 91, 1-(2,6-dimethylbenzyl)-3-ethyl-1H-indole-6-carboxylic acid] is 2.4-fold higher in IC50: 18 nM for the first, 43 nM for the second. The first is the more potent here.

Going from `Cc1cccc(Cl)c1Cn1nc(C)c2ncc(-c3nnn[nH]3)cc21` [Example 160, 1-(2-chloro-6-methylbenzyl)-3-methyl-6-(1H-tetrazole-5-yl)-1H-pyrazolo[4,3-b]pyridine] to `Cc1nn(Cc2c(Cl)cccc2Cl)c2cc(-c3nnn[nH]3)cnc12` [Example 156, 1-(2,6-dichlorobenzyl)-3-methyl-6-(1H-tetrazole-5-yl)-1H-pyrazolo[4,3-b]pyridine], the IC50 rises from 124 nM to 438 nM (3.5-fold).

First: O=C(O)Cc1ccc2c(C3CC3)nn(Cc3c(Cl)cccc3Cl)c2c1 [Example 148, 2-[3-cyclopropyl-1-(2,6-dichlorobenzyl)-1H-indazole-6-yl]acetic acid]
Second: CCc1nn(Cc2c(Cl)cccc2Cl)c2cc(CC(=O)O)ccc12 [Example 140, 2-[1-(2,6-dichlorobenzyl)-3-ethyl-1H-indazole-6-yl]acetic acid]
The IC50 of the first is 2-fold higher: 49 nM for the first, 24 nM for the second. The second is the more potent here.

Compared with `Cc1nn(Cc2cccc3ccccc23)c2cc(CC(=O)O)ccc12` [Example 107, 2-[3-methyl-1-(naphthalene-1-ylmethyl)-1H-indazole-6-yl]acetic acid], `Cc1nn(Cc2cccc3cccnc23)c2cc(CC(=O)O)ccc12` [Example 115, 2-[3-methyl-1-(quinoline-8-ylmethyl)-1H-indazole-6-yl]acetic acid] is 5.1-fold higher in IC50: 77 nM for the first, 394 nM for the second.

First: Cc1nn(Cc2cccc(Cl)c2Cl)c2cc(C(=O)O)ccc12 [Example 120, 1-(2,3-dichlorobenzyl)-3-methyl-1H-indazole-6-carboxylic acid]
Second: N#Cc1nn(Cc2c(Cl)cccc2Cl)c2cc(C(=O)O)ccc12 [Example 150, 3-cyano-1-(2,6-dichlorobenzyl)-1H-indazole-6-carboxylic acid]
The IC50 of the first is 3.2-fold lower: 91 nM for the first, 295 nM for the second. The first is the more potent here.

First: Cc1ccc(C)c(Cn2cc(C)c3ccc(CC(=O)O)cc32)c1 [Example 85, 2-[1-(2,5-dimethylbenzyl)-3-methyl-1H-indole-6-yl]acetic acid]
Second: Cc1cn(Cc2cc3c(cc2Cl)OCO3)c2cc(CC(=O)O)ccc12 [Example 88, 2-{1-[(6-chlorobenzo[d][1,3]dioxol-5-yl)methyl]-3-methyl-1H-indole-6-yl}acetic acid]
The IC50 of the first is 1.6-fold lower: 63 nM for the first, 98 nM for the second. The first is the more potent here.

`Cc1ccc(C)c(Cn2nc(C)c3ncc(-c4nnn[nH]4)cc32)c1` [Example 163, 1-(2,5-dimethylbenzyl)-3-methyl-6-(1H-tetrazole-5-yl)-1H-pyrazolo[4,3-b]pyridine] and `Cc1cccc(Cl)c1Cn1nc(Cl)c2ncc(-c3nnn[nH]3)cc21` [Example 177, 3-chloro-1-(2-chloro-6-methylbenzyl)-6-(1H-tetrazole-5-yl)-1H-pyrazolo[4,3-b]pyridine] are within 1.5-fold of each other in IC50: 113 nM for the first, 104 nM for the second.

Going from `Cc1nn(Cc2csc3ccc(Cl)cc23)c2cc(CCC(=O)O)ccc12` [Example 124, 3-{1-[(5-chlorobenzo[b]thiophene-3-yl)methyl]-3-methyl-1H-indazole-6-yl}propionic acid] to `Cc1nn(Cc2c(Cl)cccc2C#N)c2cc(CC(=O)O)ccc12` [Example 109, 2-[1-(2-chloro-6-cyanobenzyl)-3-methyl-1H-indazole-6-yl]acetic acid], the IC50 rises from 31 nM to 335 nM (11-fold). The first is the more potent here.

First: Cc1cccc(C)c1Cn1cc(C(C)C)c2ccc(C(=O)O)cc21 [Example 92, 1-(2,6-dimethylbenzyl)-3-isopropyl-1H-indole-6-carboxylic acid]
Second: Clc1cccc(Cl)c1Cn1nc(Cl)c2ncc(-c3nnn[nH]3)cc21 [Example 175, 3-chloro-1-(2,6-dichlorobenzyl)-6-(1H-tetrazole-5-yl)-1H-pyrazolo[4,3-b]pyridine]
The IC50 of the first is 2.3-fold lower: 71 nM for the first, 163 nM for the second. The first is the more potent here.
